Where “and” joins values, the source holds several entries; their conditions need not be identical. Identical values can stand only once.
Tested on: 377384-186-R-J1-PDC complex spheroid viability
Experiment: Anticancer human tumor 377384-186-R-J1-PDC patient-derived pancreatic carcinoma cell line growth inhibition [CLK]
Conditions: for viability, T/C: stronger effect = lower value
Method in brief: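 Patient-derived tumor cells grown as complex spheroids with HUVEC endothelial cells and mesenchymal stem cells, treated with drug combinations. Concentrations descend in half-log steps from near clinical Cmax, or from 10 microM if Cmax unknown.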

[1] = curve of first compound, second compound 0.0316 µM
[2] = curve of first compound, second compound 0.1 µM
[3] = curve of first compound, second compound 0.316 µM
[4] = curve of first compound, second compound 1 µM
[5] = curve of first compound, second compound 3.16 µM
[6] = curve of first compound, second compound 10 µM
[7] = second compound 0.0316 µM, first compound 0.0316 µM
[8] = second compound 0.0316 µM, first compound 0.1 µM
[9] = second compound 0.0316 µM, first compound 0.316 µM
[10] = second compound 0.0316 µM, first compound 1 µM
[11] = second compound 0.1 µM, first compound 0.0316 µM
[12] = second compound 0.1 µM, first compound 0.1 µM
[13] = second compound 0.1 µM, first compound 0.316 µM
[14] = second compound 0.1 µM, first compound 1 µM
[15] = second compound 0.316 µM, first compound 0.0316 µM
[16] = second compound 0.316 µM, first compound 0.1 µM
[17] = second compound 0.316 µM, first compound 0.316 µM
[18] = second compound 0.316 µM, first compound 1 µM
[19] = second compound 1 µM, first compound 0.0316 µM
[20] = second compound 1 µM, first compound 0.1 µM
[21] = second compound 1 µM, first compound 0.316 µM
[22] = second compound 1 µM, first compound 1 µM
[23] = second compound 3.16 µM, first compound 0.0316 µM
[24] = second compound 3.16 µM, first compound 0.1 µM
[25] = second compound 3.16 µM, first compound 0.316 µM
[26] = second compound 3.16 µM, first compound 1 µM
[27] = second compound 10 µM, first compound 0.0316 µM
[28] = second compound 10 µM, first compound 0.1 µM
[29] = second compound 10 µM, first compound 0.316 µM
[30] = second compound 10 µM, first compound 1 µM
[31] = second compound 0.0316 µM, first compound 3.16 µM
[32] = second compound 0.0316 µM, first compound 10 µM
[33] = second compound 0.1 µM, first compound 3.16 µM
[34] = second compound 0.1 µM, first compound 10 µM
[35] = second compound 0.316 µM, first compound 3.16 µM
[36] = second compound 0.316 µM, first compound 10 µM
[37] = second compound 1 µM, first compound 3.16 µM
[38] = second compound 1 µM, first compound 10 µM
[39] = second compound 3.16 µM, first compound 3.16 µM
[40] = second compound 3.16 µM, first compound 10 µM
[41] = second compound 10 µM, first compound 3.16 µM
[42] = second compound 10 µM, first compound 10 µM
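Further: spheroids exposed to agents for 7 days before reading.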
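Wherever viability, T/C is given: luminescence signal used as a stand-in for viable cells.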

CCN1CCN(Cc2ccc(Nc3ncc(F)c(-c4cc(F)c5nc(C)n(C(C)C)c5c4)n3)nc2)CC1 + CN1CCN(c2cc(C(=O)Nc3cc4cc(-c5cnn(C)c5)ccc4cn3)ccn2)CC1
IC50 [1]: 0.364 µM | IC50 [2]: 0.514 µM | IC50 [3]: < 0.00316 µM | IC50 [4]: < 0.00316 µM | IC50 [5]: < 0.00316 µM | IC50 [6]: < 0.00316 µM | viability, T/C (second compound 0.0316 µM, first compound 0.00316 µM): 107% | viability, T/C (second compound 0.0316 µM, first compound 0.01 µM): 78.2% | viability, T/C [7]: 84% | viability, T/C [8]: 66.3% | viability, T/C [9]: 48.8% | viability, T/C [10]: 39.5% | viability, T/C (second compound 0.1 µM, first compound 0.00316 µM): 98.1% | viability, T/C (second compound 0.1 µM, first compound 0.01 µM): 101% | viability, T/C [11]: 76.7% | viability, T/C [12]: 79.8% | viability, T/C [13]: 54.6% | viability, T/C [14]: 40.5% | viability, T/C (second compound 0.316 µM, first compound 0.00316 µM): 24.1% | viability, T/C (second compound 0.316 µM, first compound 0.01 µM): 28.6% | viability, T/C [15]: 26% | viability, T/C [16]: 22.9% | viability, T/C [17]: 24.4% | viability, T/C [18]: 24.4% | viability, T/C (second compound 1 µM, first compound 0.00316 µM): 1.06% | viability, T/C (second compound 1 µM, first compound 0.01 µM): 1.3% | viability, T/C [19]: 1.79% | viability, T/C [20]: 1.66% | viability, T/C [21]: 1.27% | viability, T/C [22]: 1.25% | viability, T/C (second compound 3.16 µM, first compound 0.00316 µM): 0.33% | viability, T/C (second compound 3.16 µM, first compound 0.01 µM): 0.44% | viability, T/C [23]: 1.09% | viability, T/C [24]: 0.39% | viability, T/C [25]: 2.28% | viability, T/C [26]: 2.3% | viability, T/C (second compound 10 µM, first compound 0.00316 µM): 1.2% | viability, T/C (second compound 10 µM, first compound 0.01 µM): 0.43% | viability, T/C [27]: 0.55% | viability, T/C [28]: 0.44% | viability, T/C [29]: 1.76% | viability, T/C [30]: 0.24%

CC(CO)NC(=O)c1cc(-c2ccc(Cl)cc2)nn(-c2cnn(C)c2)c1=O (configuration not stated) + CN1CCN(c2cc(C(=O)Nc3cc4cc(-c5cnn(C)c5)ccc4cn3)ccn2)CC1
IC50 [1]: > 10 µM | IC50 [2]: > 10 µM | IC50 [3]: < 0.0316 µM | IC50 [4]: < 0.0316 µM | IC50 [5]: < 0.0316 µM | IC50 [6]: < 0.0316 µM | viability, T/C [7]: 104% | viability, T/C [8]: 118% | viability, T/C [9]: 101% | viability, T/C [10]: 93.5% | viability, T/C [31]: 82.3% | viability, T/C [32]: 51.5% | viability, T/C [11]: 107% | viability, T/C [12]: 105% | viability, T/C [13]: 85.5% | viability, T/C [14]: 101% | viability, T/C [33]: 77.7% | viability, T/C [34]: 57% | viability, T/C [15]: 33.6% | viability, T/C [16]: 30.6% | viability, T/C [17]: 27.8% | viability, T/C [18]: 31.3% | viability, T/C [35]: 31.9% | viability, T/C [36]: 29.1% | viability, T/C [19]: 1.54% | viability, T/C [20]: 1.76% | viability, T/C [21]: 1.91% | viability, T/C [22]: 1.77% | viability, T/C [37]: 2.49% | viability, T/C [38]: 2.71% | viability, T/C [23]: 0.34% | viability, T/C [24]: 1% | viability, T/C [25]: 0.42% | viability, T/C [26]: 0.4% | viability, T/C [39]: 0.66% | viability, T/C [40]: 0.95% | viability, T/C [27]: 0.55% | viability, T/C [28]: 0.43% | viability, T/C [29]: 0.69% | viability, T/C [30]: 0.78% | viability, T/C [41]: 0.94% | viability, T/C [42]: 0.42%

COC1C=CCC(C)C(C)S(=O)(=O)NC(=O)c2ccc3c(c2)N(CC2CCC21)CC1(CCCc2cc(Cl)ccc21)CO3 (configuration not stated) + CNC(=O)c1ccc(Nc2nc(OC3CCCC3)c3c(-c4ccc5nc(C)oc5c4)c[nH]c3n2)c(OC)c1
IC50 [1]: 5.94 µM | IC50 [2]: 4.47 µM | IC50 [3]: < 0.0316 µM | IC50 [4]: < 0.0316 µM | IC50 [5]: < 0.0316 µM | IC50 [6]: < 0.0316 µM | viability, T/C [7]: 100% | viability, T/C [8]: 99.6% | viability, T/C [9]: 97.8% | viability, T/C [10]: 92.9% | viability, T/C [31]: 84.2% | viability, T/C [32]: 22.4% | viability, T/C [11]: 57.9% | viability, T/C [12]: 61.9% | viability, T/C [13]: 56% | viability, T/C [14]: 68.4% | viability, T/C [33]: 60% | viability, T/C [34]: 26.2% | viability, T/C [15]: 19.9% | viability, T/C [16]: 17.2% | viability, T/C [17]: 18.3% | viability, T/C [18]: 16.8% | viability, T/C [35]: 23% | viability, T/C [36]: 19.2% | viability, T/C [19]: 19% | viability, T/C [20]: 17.6% | viability, T/C [21]: 14.9% | viability, T/C [22]: 12.4% | viability, T/C [37]: 17.8% | viability, T/C [38]: 21.9% | viability, T/C [23]: 18.9% | viability, T/C [24]: 18.9% | viability, T/C [25]: 13.4% | viability, T/C [26]: 13.9% | viability, T/C [39]: 14.6% | viability, T/C [40]: 20.8% | viability, T/C [27]: 18.5% | viability, T/C [28]: 16.6% | viability, T/C [29]: 15.1% | viability, T/C [30]: 12.4% | viability, T/C [41]: 12.3% | viability, T/C [42]: 18%

Nc1ccn(C2OC(CO)C(O)C2(F)F)c(=O)n1 (configuration not stated)
viability, T/C (compound 0.0316 µM): 10.8% and 6.86% | viability, T/C (compound 0.1 µM): 4.28% and 3.83% | viability, T/C (compound 0.316 µM): 5.62% and 2.98% | viability, T/C (compound 1 µM): 2.41% and 2.75% | viability, T/C (compound 3.16 µM): 3.34% and 2.18% | viability, T/C (compound 10 µM): 2.14% and 1.73% | IC50 (curve of compound): < 0.0316 µM

C=C(F)C(=O)N1CCN(c2nc(OCC3CCCN3C)nc3c2CCN(c2cccc4cccc(Cl)c24)C3)CC1CC#N (configuration not stated)
viability, T/C (compound 0.0316 µM): 88.4% and 94.1% | viability, T/C (compound 0.1 µM): 97.7% and 89.9% | viability, T/C (compound 0.316 µM): 86.1% and 91.8% | viability, T/C (compound 1 µM): 73.6% and 70.8% | viability, T/C (compound 3.16 µM): 21.3% and 26.5% | viability, T/C (compound 10 µM): 0.31% and 0.54% | IC50 (curve of compound): 1.67 µM and 1.73 µM

CCN1CCN(Cc2ccc(Nc3ncc(F)c(-c4cc(F)c5nc(C)n(C(C)C)c5c4)n3)nc2)CC1
viability, T/C (compound 0.00316 µM): 84.8% and 87.7% | viability, T/C (compound 0.01 µM): 74.9% and 74.1% | viability, T/C (compound 0.0316 µM): 74% and 73.8% | viability, T/C (compound 0.1 µM): 61% and 58.6% | viability, T/C (compound 0.316 µM): 45.6% and 50.9% | viability, T/C (compound 1 µM): 39.5% and 40.4% | IC50 (curve of compound): 0.245 µM and 0.335 µM
